From patent US7214495B2, “Screening method” (Takeda Pharmaceutical Company Limited, priority 2002, dated 2007) come the findings set out here.

In assay [1] the target is T1, human-derived GPR40 (Homo sapiens, UniProt O14842).
T1 construct: The DNA fragment encoding human GPR40 was acquired by the following PCR procedures; expressed in transfected cells; host or cells: CHO-K1 (transient, Lipofectamine)
As to the kind of experiment: Intracellular calcium change (FLIPR) in CHO-hGPR40 No. 104, eicosanoids. It is filed as cell-based. Conditions: added in 10^−5 M to 10^−6 M; no response in vector-only control. As for the experimental part: The CHO cell line (CHO-hGPR40 No. 104) wherein human GPR40 prepared by publicly known methods using the human GPR40 expression vector prepared in REFERENCE EXAMPLE 1 was expressed was cultured in MEMα medium (Invitrogen) containing 10% fetal calf serum (Invitrogen), unless otherwise indicated. The cells cultured were rinsed with PBS (Invitrogen), scraped in trypsin/EDTA solution (Invitrogen) and recovered by centrifugal operation. The number of the cells obtained was counted and diluted so as to contain 3×10^4 cells/100 μl. The dilution was dispensed in a Black walled 96-well plate (Costar) in 100 μl/well, followed by incubation overnight in a CO2 incubator. The changes in intracellular calcium level in this case were measured using FLIPR (Molecular Device). In order to determine the changes in the intracellular calcium ion level on FLIPR, the cells were pre-treated by the following procedures. First, for the purpose of adding a fluorescent dye Fluo-3 AM (DOJIN) to the cells or washing the cells immediately before the FLIPR assay, an assay buffer was prepared. A solution obtained by adding 20 ml of 1M HEPES (pH 7.4) (DOJIN) to 1000 ml of HBSS (Invitrogen) was prepared (hereinafter HBSS/HEPES solution), to which 10 ml of a solution mixture obtained by dissolving 710 mg of Probenecid (Sigma) in 5 ml of 1N NaOH and further adding 5 ml of HBSS/HEPES solution was added. The resulting solution was used as the assay buffer. Next, 50 μg of Fluo-3AM was dissolved in 21 μl of DMSO (DOJIN) and an equal volume of 20% Pulronic acid (Molecular Probes) was added to and mixed with the solution. The mixture was then added to 10.6 ml of the assay buffer supplemented with 105 μl of fetal calf serum to prepare a fluorescent dye solution. The medium for the CHO cell line cultured was removed. Immediately thereafter, the fluorescent dye solution was dispensed in 100 μl each/well and the cells were incubated in a CO2 incubator for an hour so that the fluorescent dye was taken up into the cells. The cells after the incubation was washed with the assay buffer described above and set on FLIPR. A test sample added to the CHO cell line was prepared using the assay buffer and set on FLIPR at the same time. After the pre-treatment above was made, the changes in intracellular calcium level after the addition of various test samples were measured on FLIPR. […] It was thus noted that GPR40 was responsive to these compounds as well.

Assay [2] deals with T2, human GPR40 (Homo sapiens, UniProt O14842).
T2 construct: The resulting fragment (ca. 1 kb) was introduced into vector pAKKO-111, which was used for transfection of CHO cells; expressed in transfected cells
The experiment in a line: EC50 by FLIPR calcium assay in CHO cells stably expressing human GPR40. The conditions noted are these: intracellular calcium, FLIPR, stable CHO line; for EC50: read-out: EC50 Human GPR40. It is filed as cell-based. As for the experimental part: (§1) For determination of EC50 values, the CHO cell lines in which human-, mouse- and rat-derived GPR40 was stably expressed were used. Unless otherwise indicated, these CHO cell lines were incubated in α-MEM medium (Invitrogen) supplemented with 10% fetal calf serum (Invitrogen).
(§2) On the day before assay, the cells incubated to almost confluent stage were rinsed with PBS (Invitrogen), then scraped in 0.05% trypsin-EDTA solution (Invitrogen) and recovered by centrifugal operation. The number of the cells obtained was counted and diluted so as to contain 3×10^5 cells/1 mL of the medium. The dilution was dispensed in a Black welled 96-well plate (Coster) in 100 μL/well, followed by incubation overnight in a CO2 incubator. To the thus prepared CHO cells, various test samples were added and the changes in intracellular calcium level in this case were measured using FLIPR (Molecular Device). In order to determine the changes in the intracellular calcium ion level on FLIPR, the cells were pre-treated by the following procedures.
(§3) First, for the purpose of adding a fluorescent dye Fluo-3 AM (DOJIN) to the cells or washing the cells immediately before the FLIPR assay, an assay buffer was prepared. A solution obtained by adding 20 mL of 1M HEPES (pH 7.4) (DOJIN) to 1000 mL of HBSS (Invitrogen) was prepared (hereinafter HBSS/HEPES solution), to which 10 mL of a solution mixture obtained by dissolving 710 mg of Probenecid (Sigma) in 5 mL of 1N NaOH and further adding 5 mL of HBSS/HEPES solution was added. The resulting solution was used as the assay buffer. Next, 50 μg of Fluo-3AM was dissolved in 21 μL of DMSO (Wako) and an equal volume of 20% Pulronic acid (Molecular Probes) was added to and mixed with the solution. The mixture was then added to 10.6 mL of the assay buffer supplemented with 105 μL of fetal calf serum to prepare a fluorescent dye solution. […], the medium for the CHO cells again plated in a Black welled 96-well plate was removed. Immediately thereafter, the fluorescent dye solution was dispensed in 100 μL each/well and the cells were incubated in a CO2 incubator for an hour so that the fluorescent dye was taken up into the cells. The cells after the incubation was washed with the assay buffer described above and set on FLIPR. […] After the pre-treatment above was made, the changes in intracellular calcium level after the addition of various test samples were measured on FLIPR.
A general note: Calcium assays in cells follow changes in intracellular calcium, usually with a dye or a luminescent sensor.

In assay [3] the test system is mouse pancreatic β cell line MIN6. The experiment in a line: Insulin secretion from MIN6 in KRBH buffer (immunoassay). The conditions noted are these: 22 mM glucose KRBH, 90 minutes. It is filed as cell-based. As to the method:
The mouse pancreatic β cell line MIN6 incubated in a flask was scraped in PBS containing 2.5 mM EDTA and plated in a 96-well plate followed by incubation for 2 days. The medium used was the same as in EXAMPLE 24, namely, 4.5 g/l of glucose-containing Dulbecco's Modified Eagle Medium (DMEM, Invitrogen, Inc.) supplemented with 15% fetal calf serum (ThermoTrace, Inc.), 5.5 μM 2-mercaptethanol (Invitrogen, Inc.), 20 mM HEPES pH 7.3, 100 U/ml penicillin and 100 μg/ml streptomycin. The cells were washed twice with modified Krebs-Ringer bicarbonate buffer (KRBH, 116 mM NaCl, 4.7 mM KCl, 1.2 mM KH2PO4, 1.2 mM MgSO4, 2.5 mM CaCl2, 25 mM NaHCO3, 24 mM HEPES, pH 7.3), followed by preincubation at 37° C. in 5% CO2 for 30 minutes. The fatty acid diluted/prepared using the aforesaid KRBH buffer added with 22 mM glucose was added to the cells after the preincubation, followed by incubation under the conditions of 37° C. in 5% CO2 for 90 minutes. After the incubation, the supernatant of the cells was recovered and stored in a frozen state. The insulin content in the supernatant was assayed using an insulin immunoassay kit commercially available (Amersham Pharmacia, Inc.).
Based on the method of EXAMPLE 25, effects of glucose level when added with fatty acids were examined. The level of glucose, which was added to KRBH upon the addition of fatty acids, was varied to 0, 5.5, 11 and 22 mM to study the effects.
The insulin secretion enhancing activity in the m40i103-introduced MIN6 cells using HVJ Envelope VECTOR KIT GenomONE based on the method of EXAMPLE 18 was examined. The insulin secretion enhancing activity by fatty acids was examined according to the method of EXAMPLE 25.
Based on the procedures of EXAMPLE 25, an essential prerequisite of Ca^2+ ions in the extracellular fluid was examined. In preincubation and incubation with a sample, Ca^2+ ions were removed and 0.1 mM EGTA, which was a reagent for chelating Ca^2+ ions, was further added, and then the insulin secretion enhancing activity by fatty acids was examined in this case.
Based on the method of EXAMPLE 25, effects of Ca^2+ channel blocker (Nifedipine) and MAP kinase inhibitor (PD98059) were examined. In preincubation and incubation with a sample, the insulin secretion enhancing activity by fatty acids was examined when Nifedipine (10 μM) or PD98059 (50 μM) was added.
It is known that fatty acids have the property of binding to albumin. Based on the method of EXAMPLE 25, effects were examined when bovine serum albumin (BSA) was present. In preincubation and incubation with a sample, the insulin secretion activity by fatty acids was examined when 0.1% BSA was added to the buffer.

In assay [4] the target is T3, Mouse GPR40 (Mus musculus, UniProt Q76JU9).
T3 construct: expressed in transfected cells
As to the kind of experiment: EC50 by FLIPR calcium assay in CHO cells stably expressing mouse GPR40. It is filed as cell-based. The conditions noted are these: intracellular calcium, FLIPR, stable CHO line. As to the method:
as §1, §2, §3

In assay [5] the target is T4, Rat GPR40 (Rattus norvegicus, UniProt Q8K3T4).
T4 construct: expressed in transfected cells
As to the kind of experiment: EC50 by FLIPR calcium assay in CHO cells stably expressing rat GPR40. It is filed as cell-based. The conditions noted are these: intracellular calcium, FLIPR, stable CHO line. As to the method: as §1, §2, §3

For assay [6], the system named is MIN6 cells. The experiment in a line: FLIPR intracellular calcium assay using MIN6. It is filed as cell-based, mouse. Conditions: 10 μM fatty acid. As to the method:
Mouse pancreatic β cell line MIN6 incubated in a flask was scraped using PBS containing 2.5 mM EDTA and diluted so as to contain 3×10^5 cells/1 mL of the medium. The dilution was dispensed in a Black welled 96-well plate (Coster) in 100 μL/well, followed by incubation in a CO2 incubator for 2 days. The medium used was 4.5 g/l of glucose-containing Dulbecco's Modified Eagle Medium (DMEM, Invitrogen, Inc.) supplemented with 15% fetal calf serum (ThermoTrace, Inc.), 5.5 μM 2-mercaptethanol (Invitrogen, Inc.), 20 mM HEPES pH 7.3, 100 U/ml penicillin and 100 μg/ml streptomycin. To the thus prepared MIN6 cells, various fatty acids (10 μM) were added and the changes in intracellular calcium level in this case were measured using FLIPR (Molecular Device). The changes in the intracellular calcium ion level on FLIPR were assayed in accordance with the procedures described in EXAMPLE 24.

T2 sequence (O14842 whole entry, the tested form may be a part): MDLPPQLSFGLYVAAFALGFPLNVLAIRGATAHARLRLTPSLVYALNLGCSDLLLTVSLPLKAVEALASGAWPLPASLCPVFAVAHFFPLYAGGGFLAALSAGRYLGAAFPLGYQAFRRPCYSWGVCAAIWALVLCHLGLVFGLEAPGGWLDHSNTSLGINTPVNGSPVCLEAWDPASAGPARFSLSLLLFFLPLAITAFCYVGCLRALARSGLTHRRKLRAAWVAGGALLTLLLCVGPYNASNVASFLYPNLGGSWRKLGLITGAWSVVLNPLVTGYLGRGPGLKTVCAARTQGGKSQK
T1 sequence (O14842 whole entry, the tested form may be a part): as above
T4 sequence (Q8K3T4 whole entry): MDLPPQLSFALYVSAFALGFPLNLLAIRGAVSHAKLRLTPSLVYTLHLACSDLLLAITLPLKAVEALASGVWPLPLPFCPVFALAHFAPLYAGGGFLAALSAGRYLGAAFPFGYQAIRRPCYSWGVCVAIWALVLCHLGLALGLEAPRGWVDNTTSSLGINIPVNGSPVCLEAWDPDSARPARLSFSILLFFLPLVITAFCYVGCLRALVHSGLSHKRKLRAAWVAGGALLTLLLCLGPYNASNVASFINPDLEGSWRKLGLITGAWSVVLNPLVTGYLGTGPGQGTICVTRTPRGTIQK
T3 sequence (Q76JU9 whole entry): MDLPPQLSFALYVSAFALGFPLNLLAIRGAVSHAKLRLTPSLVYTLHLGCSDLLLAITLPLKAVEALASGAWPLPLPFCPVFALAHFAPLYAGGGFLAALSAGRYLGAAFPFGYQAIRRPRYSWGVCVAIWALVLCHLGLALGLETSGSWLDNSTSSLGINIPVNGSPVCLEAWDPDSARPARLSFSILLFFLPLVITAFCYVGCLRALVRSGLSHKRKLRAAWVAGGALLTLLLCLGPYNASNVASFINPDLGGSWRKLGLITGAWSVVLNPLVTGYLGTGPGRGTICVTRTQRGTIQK

`CCCCCC=CCC=CCC=CCC1OC1CCCC(=O)O` (mixture of isomers) [5,6-Epoxyeicosatrienoic acid, (±)5(6)-epoxy-8Z,11Z,14Z-eicosatrienoic acid]: the “response (increase in intracellular calcium level) of GPR40-expressing CHO cell line” value in assay [1] is recorded as “specifically responsive”. Besides, the EC50 in assay [2] was found to be 7.7 ± 0.2 µM.

In the case of `CCCCCC=CCC=CCC1OC1CC=CCCCC(=O)O` (mixture of isomers) [8,9-Epoxyeicosatrienoic acid, (±)8(9)-epoxy-5Z,11Z,14Z-eicosatrienoic acid], the “response (increase in intracellular calcium level) of GPR40-expressing CHO cell line” value in assay [1] is “specifically responsive”. The EC50 in assay [2] came out at 6.1 ± 0.2 µM.

For the compound `CCCCCC=CCC1OC1CC=CCC=CCCCC(=O)O` (mixture of isomers) [11,12-Epoxyeicosatrienoic acid, (±)11(12)-epoxy-5Z,8Z,14Z-eicosatrienoic acid], the “response (increase in intracellular calcium level) of GPR40-expressing CHO cell line” value in assay [1] was “specifically responsive”. In assay [2], the concentration giving a half-maximal response (EC50) was 1.4 ± 0.3 µM.

Take `CCCCCC(O)C(O)CC=CCC=CCC=CCCCC(=O)O` (mixture of isomers) [14,15-Dihydroxyeicosatrienoic acid, (±)14,15-dihydroxy-5Z,8Z,11Z-eicosatrienoic acid]: the “response (increase in intracellular calcium level) of GPR40-expressing CHO cell line” value in assay [1] is “specifically responsive”. Further, the EC50 in assay [2] stood at 1.1 ± 0.4 µM.

For `CCCCCC1OC1C/C=C\C/C=C\C/C=C\CCCC(=O)O` (racemic) [14,15-EET, (±)14(15)-epoxy-5Z,8Z,11Z-eicosatrienoic acid], the “response (increase in intracellular calcium level) of GPR40-expressing CHO cell line” value in assay [1] is listed as “specifically responsive”.

For the compound `CCCC(=O)O` [Butyric acid (C4), Butyric acid], the “insulin secretion enhancing activity” value in assay [3] is reported as “did not show any significant insulin secretion enhancing activity”. The “EC50 Human GPR40” value in assay [2] was “inactive”. In addition, in assay [4], the “EC50 Mouse GPR40” value is “inactive”. The “EC50 Rat GPR40” value in assay [5] was “inactive”. For the same compound, the “intracellular Ca^2+ level in MIN6” value in assay [6] was “not observed”.

Regarding `CCCCC/C=C\C/C=C\CCCCCCCC(=O)OC` [Methyl linolate], the “insulin secretion enhancing activity” value in assay [3] was “did not show any significant insulin secretion enhancing activity”. Also, in assay [2], the “EC50 Human GPR40” value was “inactive”. Also, the “EC50 Mouse GPR40” value in assay [4] is “inactive”. In assay [5], the “EC50 Rat GPR40” value was “inactive”. In addition, in assay [6], the “intracellular Ca^2+ level in MIN6” value is “not observed”.

The EC50 is the concentration that produces a half-maximal response.
